One series concerns rats. The settings on record: systemic administration; cited from earlier work.
The nature of a further series: Slurry Studies. The class given is physicochemical. The settings on record: 90/10 IPA/water, ambient temperature, 72 hrs. As for the experimental part:
Form 1 (20 mg) was suspended in 90/10 IPA/water […] and shaken at ambient temperature for 72 hrs. The supernatant was evaporated rather than filtered due to the small volume and the resulting solid was examined by XRPD (FIG. 5).

Series [1] can be described thus: Stability study of Form 1 on storage. The class given is physicochemical. The settings on record: for Change in XRPD diffractogram on storage: after 1 month and 3 months. As to the method: A sample of Form 1 was packed in double polyethylene bags and sealed in a HDPE bottle and stored at conditions of 25° C./60% RH. The sample was reanalysed after 1 month and 3 months by XRPD (using Method B). No change in the XRPD diffractogram was observed when the sample was stored at 25° C./60% RH after either 1 month or 3 months.
Further tests on the sample of Form 1 stored at 25° C./60% RH were carried out as described in Table 1:
A second sample of Form 1 was packed in double polyethylene bags and sealed in a HDPE bottle and stored under accelerated stability conditions of 40° C./75% RH. The sample was reanalysed after 1 month and 3 months by XRPD (using Method B). No change in the XRPD diffractogram was observed when the sample was stored at 40° C./75% RH after either 1 month or 3 months.
Further tests on the sample of Form 1 stored at 40° C./75% RH were carried out as described in Table 2: […]

A short description of series [2]: Visual Aqueous Solubility. The class given is physicochemical. The settings on record: thermodynamic from solid; 10 mg in 20 mL water. As for the experimental part: Form 1 (10 mg) was weighed into a glass vial and water was added in […] up to 3 mL then 1 mL portions thereafter. Solubility was assessed visually following a brief period of equilibration.

A short description of series [3]: Gravimetric Vapour Sorption (GVS) of Form 1. The class given is physicochemical. As for the experimental part: Gravimetric Vapour Sorption (GVS) data were collected using the following method: Approximately 10 mg of sample was placed into a wire-mesh vapour sorption balance pan and loaded into an ‘IgaSorp’ vapour sorption balance (Hiden Analytical Instruments). The sample was then dried by maintaining a 0% humidity environment until no further weight change was recorded. Subsequently, the sample was then subjected to a ramping profile from 0-90% RH at 10% RH increments, maintaining the sample at each step until equilibration had been attained (99% step completion). Upon reaching equilibration, the % RH within the apparatus was ramped to the next step and the equilibration procedure repeated. After completion of the sorption cycle, the sample was then dried using the same procedure. The weight change during the sorption/desorption cycles were then monitored, allowing for the hygroscopic nature of the sample to be determined.

Series [4] can be described thus: Gravimetric Vapour Sorption (GVS) of Form 5. The settings on record: 0% to 95% RH. The class given is physicochemical. As to the method:
Form 5 is hygroscopic with a mass uptake of 23%, as determined by Gravimetric Vapour Sorption (GVS) studies. The GVS studies were performed using a Surface Measurement Systems Ltd. DVS-1 No Video, equipment #2126. The sample was loaded into a balance pan, typically 20-30 mg, and equilibrated at 0% RH. After the material was dried, the RH was increased with 10% per step for 1 hour per increment, ending at 95% RH. After completion of the sorption cycle, the sample was dried using the same method. The software used for data collection was DVSWin v3.01 No Video. Data analysis was performed using DVS Standard Analysis Suite v6.3.0 (Standard).

Series [5] can be described thus: Polymorph stability of Form 5. The settings on record: also on XRPD measurement. The class given is physicochemical.
For series [6], the system named is LPS-induced disseminated intravascular coagulation. The settings on record: cited from earlier work.
Another series relates to blood. The settings on record: blood contacted with the inhibitor; cited from earlier work.
The test system of series [7] is intrinsic pathway of coagulation. The settings on record: in vitro; cited from earlier work.

For the compound `N=C(N)c1ccc(CNC(=O)c2cnn(Cc3ccccc3)c2)cc1` [ASP-440], in the series on rats, the Hematoma expansion entry was “reduced”.

With `COCc1nn(Cc2ccc(Cn3ccccc3=O)cc2)cc1C(=O)NCc1nccc(OC)c1F` [Form 1, N-[(3-Fluoro-4-methoxypyridin-2-yl)methyl]-3-(methoxymethyl)-1-({4-[(2-oxopyridin-1-yl)methyl]phenyl}methyl)pyrazole-4-carboxamide], in the series “Slurry Studies”, the “XRPD after slurry compared with FIG. 1a” value was “tendency to form hydrate(s)”. The Appearance entry in [1] (25° C./60% RH, 1 month) is “Off-white”; in [1] (25° C./60% RH, 3 months), “Off-white”; in series [1] (25° C./60% RH, Initial), “Off-white”; in series [1] (40° C./75% RH, 1 month), “Off-white”; in series [1] (40° C./75% RH, 3 months) it was “Off-white”; in series [1] (40° C./75% RH, Initial), “Off-white”. Besides, the “Assay by HPLC (on an anhydrous and solvent free basis)” value amounted to 99.5 % w/w in series [1] (25° C./60% RH, 1 month); 99.6 % w/w in series [1] (25° C./60% RH, 3 months); 101.0 % w/w in series [1] (25° C./60% RH, Initial); 99.5 % w/w in [1] (40° C./75% RH, 1 month); 100.0 % w/w in series [1] (40° C./75% RH, 3 months); 101.0 % w/w in [1] (40° C./75% RH, Initial). Further, the “DSC Tonset” value in series [1] (25° C./60% RH, 1 month) came out at 151.1 °C; in series [1] (25° C./60% RH, 3 months) it was 150.8 °C; in [1] (25° C./60% RH, Initial), 151.3 °C; in series [1] (40° C./75% RH, 1 month), 151.1 °C; in series [1] (40° C./75% RH, 3 months), 150.6 °C; in [1] (40° C./75% RH, Initial) it was 151.3 °C. Also, the “DSC Tpeak” value in [1] (25° C./60% RH, 1 month) was 152.4 °C; in series [1] (25° C./60% RH, 3 months), 152.2 °C; in series [1] (25° C./60% RH, Initial), 152.9 °C; in [1] (40° C./75% RH, 1 month), 152.3 °C; in series [1] (40° C./75% RH, 3 months), 152.5 °C; in series [1] (40° C./75% RH, Initial), 152.9 °C. The “HPLC assay (on an as is basis)” value in [1] (25° C./60% RH, 1 month) was 99.4 % w/w; in [1] (25° C./60% RH, 3 months), 99.5 % w/w; in series [1] (25° C./60% RH, Initial), 100.9 % w/w; in series [1] (40° C./75% RH, 1 month), 99.4 % w/w; in series [1] (40° C./75% RH, 3 months), 99.9 % w/w; in series [1] (40° C./75% RH, Initial) it was 100.9 % w/w. Also, the “Purity by HPLC” value in series [1] (25° C./60% RH, 1 month) was 99.62 area %; in series [1] (25° C./60% RH, 3 months) it was 99.70 area %; in series [1] (25° C./60% RH, Initial), 99.70 area %; in [1] (40° C./75% RH, 1 month), 99.57 area %; in series [1] (40° C./75% RH, 3 months) it was 99.71 area %; in [1] (40° C./75% RH, Initial), 99.70 area %. Further, the “Solid form of compound A by XRPD” value in series [1] (25° C./60% RH, 1 month) was “Conforms”; in [1] (25° C./60% RH, 3 months), “Conforms”; in series [1] (25° C./60% RH, Initial), “Conforms”; in series [1] (40° C./75% RH, 1 month), “Conforms to”; in series [1] (40° C./75% RH, 3 months), “Conforms to”; in series [1] (40° C./75% RH, Initial), “Conforms to”. The Total impurities was determined as 0.38 area % in series [1] (25° C./60% RH, 1 month); 0.30 area % in series [1] (25° C./60% RH, 3 months); 0.30 area % in [1] (25° C./60% RH, Initial); 0.43 area % in [1] (40° C./75% RH, 1 month); 0.29 area % in series [1] (40° C./75% RH, 3 months); 0.30 area % in series [1] (40° C./75% RH, Initial). The “Water by Karl Fischer analysis” value in series [1] (25° C./60% RH, 1 month) is on record as below 0.1 % w/w; in series [1] (25° C./60% RH, 3 months) it was below 0.1 % w/w; in series [1] (25° C./60% RH, Initial), below 0.1 % w/w; in [1] (40° C./75% RH, 1 month), below 0.1 % w/w; in series [1] (40° C./75% RH, 3 months), 0.1 % w/w; in [1] (40° C./75% RH, Initial), below 0.1 % w/w. In addition, the “Change in XRPD diffractogram on storage” value in [1] (25° C./60% RH) and in series [1] (40° C./75% RH) was “no change” in each case. The solubility in series [2] was below 500 µg/mL. Further, the “%-Wt(dry basis)” value in [3] (adsorption, 0.0335 %-RH) is reported as 0.04722%; in series [3] (adsorption, 9.9791 %-RH) it was 0.23%; in [3] (adsorption, 20.0169 %-RH), 0.3541%; in series [3] (adsorption, 30.0091 %-RH), 0.7126%; in [3] (adsorption, 39.9998 %-RH), 0.825%; in series [3] (adsorption, 49.991 %-RH), 1.207%. Moreover, the “%-Wt(dry basis)” value was 1.699% in [3] (adsorption, 59.9808 %-RH); 1.912% in series [3] (adsorption, 70.0195 %-RH); 2.186% in series [3] (adsorption, 80.0136 %-RH); 3.226% in series [3] (adsorption, 90.0039 %-RH); 0.000368% in series [3] (desorption, 0.0335 %-RH); 0.1269% in series [3] (desorption, 4.9801 %-RH). For the same compound, the “%-Wt(dry basis)” value in series [3] (desorption, 15.0203 %-RH) was determined as 0.5017%; in series [3] (desorption, 25.0135 %-RH) it was 0.7008%; in series [3] (desorption, 35.0052 %-RH), 1.017%; in series [3] (desorption, 44.9954 %-RH), 1.525%; in [3] (desorption, 54.9837 %-RH), 1.685%; in series [3] (desorption, 64.9759 %-RH), 1.865%. Further, the “%-Wt(dry basis)” value is reported as 2.116% in [3] (desorption, 75.0151 %-RH) and 2.547% in [3] (desorption, 85.0063 %-RH). For the same compound, in series [3] (up to 70% relative humidity), the “Hygroscopicity (GVS)” value was “absence of significant hygroscopicity”.

On to `COCc1nn(Cc2ccc(Cn3ccccc3=O)cc2)cc1C(=O)NCc1nccc(OC)c1F` [Form 5, N-[(3-Fluoro-4-methoxypyridin-2-yl)methyl]-3-(methoxymethyl)-1-({4-[(2-oxopyridin-1-yl)methyl]phenyl}methyl)pyrazole-4-carboxamide], for which the “GVS (mass uptake %)” value in [4] was found to be 23%. Moreover, the “Polymorph conversion over time” value in series [5] is listed as “converts into polymorph Form 3”.

With `Cl.NCC1CCC(C(=O)N[C@@H](Cc2ccccc2)C(=O)Nc2ccc(CC(=O)O)cc2)CC1` (stereo partly shown) [PKSI-527], the “Decrease in platelet count and fibrinogen level and increase in FDP level” value in series [6] was “significantly suppressed”.

For Ecallantide, the “Activated clotting time (ACT)” value with blood was “increase”. For the same compound, the “Contact activated induced coagulation” value in series [7] is on record as “delay”.
